Experimental data taken from patent US10040781B2, “Tank-binding kinase inhibitor compounds” (Gilead Sciences, Inc., priority 2014, dated 2018).
Read-outs that look alike come from different tables or passages of the source.

Key:
IKKε = IKKε (Homo sapiens (Human), UniProt Q14164); assay: IKKε TR-FRET enzymatic assay; format: biochemical
TBK1 = TBK1 (Homo sapiens (Human), UniProt Q9UHD2); assay: TBK1 TR-FRET enzymatic assay;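 also: phosphorylation of a biotinylated Ser/Thr peptide by purified full-length recombinant TBK1, read by TR-FRET after 240 min at 25 °C, IC50 is the geometric mean of at least four runs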
Chain of TBK1 (Q9UHD2 whole entry): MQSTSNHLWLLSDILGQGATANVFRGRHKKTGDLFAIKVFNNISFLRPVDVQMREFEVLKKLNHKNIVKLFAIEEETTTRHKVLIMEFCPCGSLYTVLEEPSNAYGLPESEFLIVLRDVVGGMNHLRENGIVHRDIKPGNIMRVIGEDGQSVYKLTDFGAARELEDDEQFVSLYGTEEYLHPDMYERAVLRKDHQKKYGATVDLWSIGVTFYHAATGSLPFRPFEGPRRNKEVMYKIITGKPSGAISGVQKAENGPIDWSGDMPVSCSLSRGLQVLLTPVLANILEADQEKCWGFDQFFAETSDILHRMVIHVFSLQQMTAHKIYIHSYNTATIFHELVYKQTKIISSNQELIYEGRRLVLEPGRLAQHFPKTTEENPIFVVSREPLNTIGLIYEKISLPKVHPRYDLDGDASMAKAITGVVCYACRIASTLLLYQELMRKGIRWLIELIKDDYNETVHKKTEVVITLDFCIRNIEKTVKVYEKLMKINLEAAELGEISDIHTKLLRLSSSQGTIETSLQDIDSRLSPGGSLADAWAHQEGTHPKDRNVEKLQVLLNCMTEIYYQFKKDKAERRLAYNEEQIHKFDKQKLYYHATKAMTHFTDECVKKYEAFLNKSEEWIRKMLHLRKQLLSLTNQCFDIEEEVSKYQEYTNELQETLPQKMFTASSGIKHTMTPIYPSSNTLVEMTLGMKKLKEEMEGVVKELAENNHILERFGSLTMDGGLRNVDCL

[1] = TR-FRET, 2×Km ATP, geometric mean of minimum four determinations, read-out: IKKe IC50

Chain of IKKε (Q14164 whole entry): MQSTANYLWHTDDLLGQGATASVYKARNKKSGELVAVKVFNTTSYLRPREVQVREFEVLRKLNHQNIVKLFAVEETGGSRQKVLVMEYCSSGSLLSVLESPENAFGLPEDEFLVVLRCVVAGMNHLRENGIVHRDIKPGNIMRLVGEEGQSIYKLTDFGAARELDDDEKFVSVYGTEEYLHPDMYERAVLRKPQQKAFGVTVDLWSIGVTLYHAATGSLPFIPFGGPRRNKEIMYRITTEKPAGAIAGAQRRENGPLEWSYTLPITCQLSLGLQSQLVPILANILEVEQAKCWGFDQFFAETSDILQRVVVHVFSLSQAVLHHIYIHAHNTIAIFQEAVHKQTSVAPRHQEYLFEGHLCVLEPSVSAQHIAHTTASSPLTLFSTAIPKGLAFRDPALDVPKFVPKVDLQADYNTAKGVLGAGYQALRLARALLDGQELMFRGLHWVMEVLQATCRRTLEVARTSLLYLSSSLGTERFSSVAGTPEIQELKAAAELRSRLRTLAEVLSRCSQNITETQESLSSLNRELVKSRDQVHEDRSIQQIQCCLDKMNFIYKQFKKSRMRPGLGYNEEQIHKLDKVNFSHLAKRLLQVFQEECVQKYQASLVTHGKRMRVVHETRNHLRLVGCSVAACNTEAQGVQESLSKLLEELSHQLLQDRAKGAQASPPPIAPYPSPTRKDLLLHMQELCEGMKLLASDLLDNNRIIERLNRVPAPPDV

IC50 (IKKε; read-out: IKKe IC50) [nM] | IC50 (TBK1) [nM] | IC50 (IKKε; [1]) [nM] | SMILES | IC50 (IKKε; IKKe IC50) [nM] | IC50 (TBK1; TBK1 IC50) [nM]
– | – | – | N#Cc1cc(-c2ncnc(Nc3ccc(N4CCN(C5COC5)CC4)cc3)n2)ccc1OC1CC[S+]([O-])CC1 (single isomer, unassigned) [Example 26, 5-(4-((4-(4-(oxetan-3-yl)piperazin-1-yl)phenyl)amino)-1,3,5-triazin-2-yl)-2-((1-oxidotetrahydro-2H-thiopyran-4-yl)oxy)benzonitrile] | 23 | 6
148 | 37 | – | COC(=O)N1CC[C@@H](Oc2ccc(-c3ncnc(Nc4ccc(N5CCN(C6COC6)CC5)cc4)n3)cc2C#N)C1 [Example 2, (R)-methyl 3-(2-cyano-4-(4-((4-(4-(oxetan-3-yl)piperazin-1-yl)phenyl)amino)-1,3,5-triazin-2-yl)phenoxy)pyrrolidine-1-carboxylate] | – | –
21 | 4 | – | CNC(=O)c1ccc(Nc2ncnc(-c3ccc(OC4CCOCC4)c(C#N)c3)n2)cc1 [Example 14, 4-((4-(3-cyano-4-((tetrahydro-2H-pyran-4-yl)oxy)phenyl)-1,3,5-triazin-2-yl)amino)-N-methylbenzamide] | – | –
32 | 5 | – | N#Cc1cc(-c2ncnc(Nc3ccc(N4CCN(C5COC5)CC4)cc3)n2)ccc1O[C@@H]1CCOC1 [Example 29, (R)-5-(4-((4-(4-(oxetan-3-yl)piperazin-1-yl)phenyl)amino)-1,3,5-triazin-2-yl)-2-((tetrahydrofuran-3-yl)oxy)benzonitrile] | – | –
305 | 203 | – | N#Cc1cc(-c2ncnc(Nc3ccc(N4CCOCC4)cc3)n2)ccc1NC(=O)[C@@H]1CCCN1 [Example 37, (S)—N-(2-cyano-4-(4-((4-morpholinophenyl)amino)-1,3,5-triazin-2-yl)phenyl)pyrrolidine-2-carboxamide] | – | –
7 | 2 | – | COc1cc(Nc2ncnc(-c3ccc(OC4CCOCC4)c(C#N)c3)n2)cc(F)c1N1CCN(C2COC2)CC1 [Example 61, 5-(4-((3-fluoro-5-methoxy-4-(4-(oxetan-3-yl)piperazin-1-yl)phenyl)amino)-1,3,5-triazin-2-yl)-2-((tetrahydro-2H-pyran-4-yl)oxy)benzonitrile] | – | –
5 | 1 | – | N#Cc1cc(-c2ncnc(Nc3ccc(N4CCN(C(=O)CO)CC4)cc3)n2)ccc1OC1CCOCC1 [Example 64, 5-(4-((4-(4-(2-hydroxyacetyl)piperazin-1-yl)phenyl)amino)-1,3,5-triazin-2-yl)-2-((tetrahydro-2H-pyran-4-yl)oxy)benzonitrile] | – | –
2 | 3 | – | N#CCC(=O)N1CC[C@H](Oc2ccc(-c3ncnc(Nc4ccc(N5CCN(C6COC6)CC5)cc4)n3)cc2C#N)C(F)(F)C1 [Example 160, (S)-2-((1-(2-cyanoacetyl)-3,3-difluoropiperidin-4-yl)oxy)-5-(4-((4-(4-(oxetan-3-yl)piperazin-1-yl)phenyl)amino)-1,3,5-triazin-2-yl)benzonitrile] | – | –
1 | 2 | – | N#Cc1cc(-c2ncnc(Nc3ccc(N4CCN(C5COC5)CC4)cc3)n2)ccc1O[C@H]1CCN(C(=O)c2cnn[nH]2)CC1(F)F [Example 165, (S)-2-((3,3-difluoro-1-(1H-1,2,3-triazole-5-carbonyl)piperidin-4-yl)oxy)-5-(4-((4-(4-(oxetan-3-yl)piperazin-1-yl)phenyl)amino)-1,3,5-triazin-2-yl)benzonitrile] | – | –
19 | 5 | – | N#Cc1cc(-c2ncnc(Nc3ccc(N4CCN(C5COC5)CC4)cc3)n2)ccc1OC1CCN(C(=O)c2ncc[nH]2)CC1 [Example 189, 2-((1-(1H-imidazole-2-carbonyl)piperidin-4-yl)oxy)-5-(4-((4-(4-(oxetan-3-yl)piperazin-1-yl)phenyl)amino)-1,3,5-triazin-2-yl)benzonitrile] | – | –
213 | 49 | – | CN1CC2(CCN(c3ccc(-c4ncnc(Nc5ccc(N6CCN(C7COC7)CC6)cc5)n4)cc3C#N)CC2)C1 [Example 209, 2-(2-methyl-2,7-diazaspiro[3.5]nonan-7-yl)-5-(4-((4-(4-(oxetan-3-yl)piperazin-1-yl)phenyl)amino)-1,3,5-triazin-2-yl)benzonitrile] | – | –
42 | 13 | – | N#Cc1cc(-c2ncnc(Nc3ccc(N4CCN(C5COC5)CC4)cc3)n2)ccc1O[C@H]1CCOC1 [Example 216, (S)-5-(4-((4-(4-(oxetan-3-yl)piperazin-1-yl)phenyl)amino)-1,3,5-triazin-2-yl)-2-((tetrahydrofuran-3-yl)oxy)benzonitrile] | – | –
1 | 3 | – | C[C@H]1CN(C2COC2)CCN1c1ccc(Nc2ncnc(-c3ccc(O[C@H]4CCN(C(=O)c5cnn[nH]5)CC4(F)F)c(C#N)c3)n2)cc1 [Example 258, 2-(((S)-3,3-difluoro-1-(1H-1,2,3-triazole-5-carbonyl)piperidin-4-yl)oxy)-5-(4-((4-((S)-2-methyl-4-(oxetan-3-yl)piperazin-1-yl)phenyl)amino)-1,3,5-triazin-2-yl)benzonitrile] | – | –
38 | 23 | – | CS(=O)(=O)OC1CN(c2ccc(-c3ncnc(Nc4ccc(N5CCN(C6COC6)CC5)cc4)n3)cc2C#N)C1 [Example 276, 1-(2-cyano-4-(4-((4-(4-(oxetan-3-yl)piperazin-1-yl)phenyl)amino)-1,3,5-triazin-2-yl)phenyl)azetidin-3-yl methanesulfonate] | – | –
≥ 1000 | 475 | – | Cc1nnsc1COc1ccc(-c2ncnc(Nc3ccc(N4CCN(C5COC5)CC4)cc3)n2)cc1C#N [Example 284, 2-((4-methyl-1,2,3-thiadiazol-5-yl)methoxy)-5-(4-((4-(4-(oxetan-3-yl)piperazin-1-yl)phenyl)amino)-1,3,5-triazin-2-yl)benzonitrile] | – | –
32 | 13 | – | COC(=O)N1CC[C@H](Oc2ccc(-c3ncnc(Nc4ccc(N5CCN(C6COC6)CC5)cc4)n3)cc2C#N)[C@H](F)C1 [Example 290, (3R,4S)-methyl 4-(2-cyano-4-(4-((4-(4-(oxetan-3-yl)piperazin-1-yl)phenyl)amino)-1,3,5-triazin-2-yl)phenoxy)-3-fluoropiperidine-1-carboxylate] | – | –
1 | 2 | – | N#Cc1cc(-c2ncnc(Nc3ccc(N4CCN(C5COC5)CC4)cc3)n2)ccc1O[C@H]1CCN(C(=O)c2cnc(N)cn2)C[C@H]1F [Example 341, 2-(((3R,4S)-1-(5-aminopyrazine-2-carbonyl)-3-fluoropiperidin-4-yl)oxy)-5-(4-((4-(4-(oxetan-3-yl)piperazin-1-yl)phenyl)amino)-1,3,5-triazin-2-yl)benzonitrile] | – | –
12 | 10 | – | Cc1nc(C)c(C(=O)N2CC[C@H](Oc3ccc(-c4ncnc(Nc5ccc(N6CCN(C7COC7)CC6)cc5)n4)cc3C#N)[C@H](F)C2)[nH]1 [Example 345, 2-(((3R,4S)-1-(2,4-dimethyl-1H-imidazole-5-carbonyl)-3-fluoropiperidin-4-yl)oxy)-5-(4-((4-(4-(oxetan-3-yl)piperazin-1-yl)phenyl)amino)-1,3,5-triazin-2-yl)benzonitrile] | – | –
2 | 4 | – | C[C@H](O)C(=O)N1CC[C@H](Oc2ccc(-c3ncnc(Nc4ccc(N5CCC(C)(O)CC5)cc4)n3)cc2C#N)[C@H](F)C1 [Example 355, 2-(((3R,4S)-3-fluoro-1-((S)-2-hydroxypropanoyl)piperidin-4-yl)oxy)-5-(4-((4-(4-hydroxy-4-methylpiperidin-1-yl)phenyl)amino)-1,3,5-triazin-2-yl)benzonitrile] | – | –
129 | 37 | – | N#Cc1cc(-c2ncnc(Nc3ccc(N4CCN(C5COC5)CC4)cc3)n2)ccc1O[C@H]1CCN(C(=O)Cn2cnnc2)C[C@H]1F [Example 377, 2-(((3R,4S)-1-(2-(4H-1,2,4-triazol-4-yl)acetyl)-3-fluoropiperidin-4-yl)oxy)-5-(4-((4-(4-(oxetan-3-yl)piperazin-1-yl)phenyl)amino)-1,3,5-triazin-2-yl)benzonitrile] | – | –
2 | 3 | – | C[C@H](O)C(=O)N1CC[C@H](Oc2ccc(-c3ncnc(Nc4ccc(N5CCOC[C@@H]5CO)cc4)n3)cc2C#N)[C@H](F)C1 [Example 387, 2-(((3R,4S)-3-fluoro-1-((S)-2-hydroxypropanoyl)piperidin-4-yl)oxy)-5-(4-((4-((S)-3-(hydroxymethyl)morpholino)phenyl)amino)-1,3,5-triazin-2-yl)benzonitrile] | – | –
– | 2 | 1 | N#Cc1cc(-c2ncnc(Nc3ccc(N4CCN(C5COC5)CC4)c(F)c3)n2)ccc1O[C@H]1CCN(C(=O)[C@@H](O)CO)C[C@H]1F [Example 409, 2-(((3R,4S)-1-((S)-2,3-dihydroxypropanoyl)-3-fluoropiperidin-4-yl)oxy)-5-(4-((3-fluoro-4-(4-(oxetan-3-yl)piperazin-1-yl)phenyl)amino)-1,3,5-triazin-2-yl)benzonitrile] | – | –
– | 533 | ≥ 1000 | C[C@H]1C[C@H](Oc2ccc(-c3ncnc(Nc4ccc(N5CCN(C6COC6)CC5)cc4)n3)cc2C#N)[C@H](F)CN1C(=O)[C@H]1CCC(=O)N1 [Example 411, 2-(((2S,4S,5R)-5-fluoro-2-methyl-1-((R)-5-oxopyrrolidine-2-carbonyl)piperidin-4-yl)oxy)-5-(4-((4-(4-(oxetan-3-yl)piperazin-1-yl)phenyl)amino)-1,3,5-triazin-2-yl)benzonitrile] | – | –
– | 64 | 124 | C[C@H]1C[C@H](Oc2ccc(-c3ncnc(Nc4ccc(N5CCN(C6COC6)CC5)cc4)n3)cc2C#N)[C@H](F)CN1C(=O)[C@@H]1CCC(=O)N1 [Example 416, 2-(((2S,4S,5R)-5-fluoro-2-methyl-1-((S)-5-oxopyrrolidine-2-carbonyl)piperidin-4-yl)oxy)-5-(4-((4-(4-(oxetan-3-yl)piperazin-1-yl)phenyl)amino)-1,3,5-triazin-2-yl)benzonitrile] | – | –

SMILES | IC50 (IKKε; read-out: IKKe IC50) [nM] | IC50 (TBK1) [nM] | IC50 (IKKε; [1]) [nM] | IC50 (IKKε; IKKe IC50) [nM] | IC50 (TBK1; TBK1 IC50) [nM]
N#Cc1cc(-c2ncnc(Nc3ccc(N4CCNCC4)c(F)c3)n2)ccc1O[C@H]1CCOC[C@H]1F [Example 298, 5-(4-((3-fluoro-4-(piperazin-1-yl)phenyl)amino)-1,3,5-triazin-2-yl)-2-(((3R,4S)-3-fluorotetrahydro-2H-pyran-4-yl)oxy)benzonitrile] | 1 | 4 | – | – | –
